Numbered stars: 1 amine (or outer) side, 2 acyl side, 3 side chain; on linkers, the order of the positions; unused ones are H or OH. Bridge positions count the residues as written; N and C are the ends. Square brackets hold non-standard residues; d marks the D form. Peptide text beside a SMILES is read from it. * marks the point of attachment. hTyr(3S-OH,4S-OH,3'-OSO3H) = N[C@H](C(=O)O)[C@H](O)[C@@H](O)c1ccc(O)c(OS(=O)(=O)O)c1; Orn(4R-OH,5R-OH) = O=C([C@H](C[C@@H](O)[C@@H](O)N[*:3])N[*:1])[*:2]; Pro(3S-OH,4S-Me) = C[C@H]1CN[C@H](C(=O)O)[C@H]1O; X1 = CCCCCOc1ccc(-c2cc(-c3ccc(C(=O)*)cc3)no2)cc1; Gln(3R-OH) = NC(=O)C[C@@H](O)[C@H](N)C(=O)O; Hyp = O=C(O)[C@@H]1C[C@@H](O)CN1
Experiments:
[1] = cited from earlier work
Method: The plasma concentrations of MCFG per dose normalized with body weight (C/D) at P1, T1, P4, and T4 were 1.37 to 6.28, 0.51 to 1.38, 3.20 to 6.46, and 0.65 to 2.18 (μg/ml)/(mg/kg), respectively, indicating marked interindividual differences. […] The MCFG concentrations in the burn eschar of three patients at T1 and T4 were <0.1 to 3.98 and 1.10 to 14.81 μg/ml, respectively. Most of MCFG concentrations in the plasma and burn eschar were higher than the reported MIC90 of MCF ...

[2] = MCFG concentrations in the burn eschar of severe burn patients; type: in vivo, human; conditions: patients with severe burn injuries; conclusion in words
Method: Eight severe burn patients within 14 days after injuries (M:F = 5:3, 19 to 85 years old, 35 to 85% total body surface area) were treated with MCFG (200 to 300 mg, 3.45 to 4.49 mg/kg) once daily by intravenous infusion over 1 hour. The MCFG concentrations in the plasma at the end of the initial administration of MCFG (P1), just before the second dosing (T1), at the end of the fourth dosing (P4), and just before the fifth dosing (T4) were determined, and were compared with the reported values in health volunteers. MCFG concentrations in the burn eschar at T1 and T4 were also measured.

SMILES: CCCCCOc1ccc(-c2cc(-c3ccc(C(=O)N[C@H]4C[C@@H](O)[C@@H](O)NC(=O)[C@@H]5[C@@H](O)[C@@H](C)CN5C(=O)[C@H]([C@H](O)CC(N)=O)NC(=O)[C@H]([C@H](O)[C@@H](O)c5ccc(O)c(OS(=O)(=O)O)c5)NC(=O)[C@@H]5C[C@@H](O)CN5C(=O)[C@H]([C@@H](C)O)NC4=O)cc3)no2)cc1 [MCFG, Micafungin] (X1-[Orn(4R-OH,5R-OH)]T[Hyp][hTyr(3S-OH,4S-OH,3'-OSO3H)][Gln(3R-OH)][Pro(3S-OH,4S-Me)]; lactam 1-C)
- plasma C/D at P1, reported value in healthy volunteers ([1]; P1 = end of the initial administration): 5.7 (μg/ml)/(mg/kg)
- plasma C/D at T1, reported value in healthy volunteers ([1]; T1 = just before the second dosing): 1.3 (μg/ml)/(mg/kg)
- plasma C/D at T4, reported value in healthy volunteers ([1]; T4 = just before the fifth dosing): 2.1 (μg/ml)/(mg/kg)
- penetration into burn eschar [2]: capable of penetrating burn eschar

Reference: publication PMC3363478, “Pharmacokinetics of micafungin in patients with severe burn injuries” (Critical Care, 2012)
